Test results: patent US9694027B2, “Pyrazole derivative and use thereof for medical purposes” (KISSEI PHARMACEUTICAL CO. LTD., priority 2012, dated 2017)

What was measured:
[1] = system: rat model of low-fiber diet-induced constipation; assay: Rat model of low-fiber diet-induced constipation (Example 2); settings: for Fecal weight within 24 hours after the administration: followed by mixed carbohydrate, n=4, Control group 1 0.53, Normal feed group 8.33
Description: Compound 2 was weighed and was dissolved in distilled water at preparation concentrations of 3, 10 and 30 mg/mL as the free drug to prepare test compounds.
0.5% methylcellulose (0.5% MC) was used as a vehicle for preparation of lubiprostone. Lubiprostone was weighed and was suspended in 0.5% MC at preparation concentrations of 1, 3 and 10 mg/mL to prepare control substances.
Magnesium sulfate (MgSO4) (Wako pure chemical) was weighed and was dissolved in distilled water at a preparation concentrations of 200 mg/mL to prepare a positive control substance.
A soluble starch, sucrose and lactose monohydrate were weighed at a rate of 6:3:1 and were dissolved in distilled water which was approximately 80% of the amounts of preparation on heating, and then the mixture was added with distilled water to prepare 0.4 g/mL solution of mixed carbohydrate.
A low-fiber diet was prepared based on the literature (Kakino et al. BMC Complementary and Alternative Medicine 2010, 10: 68).
Rats were fed on the low-fiber diet for 1-2 weeks to induce constipation.
Compound 2 (3 mg/kg, 10 mg/kg or 30 mg/kg as free drug), lubiprostone (1 mg/kg, 3 mg/kg or 10 mg/kg), MgSO4 (2000 mg/kg) or a vehicle (distilled water: Control group 1, 0.5% MC: Control group 2) was administered orally at around 9 a.m. using a 1 mL glass syringe and a stomach tube. Then, 0.4 g/mL solution of mixed carbohydrate was administered orally at 2 mL/body to Control group 1 and the groups administered with Compound 2. Distilled water was administered to the normal feed group.
The sum of the fecal weights at the collection times was set as the fecal weight at 24 hours after the administration.
The statistical analysis was made by testing the uniformity of variance using Bartlett's method, and multiple comparison between Control group 1 and the group administered with Compound 2 or Control group 2 and the group administered with lubiprostone was made using Dunnett's method when variance was uniform respectively, and multiple comparison was made using Steel's method when variance was not uniform. In each case, significance level<5% was considered as significant difference.

[2] = system: Loperamide-induced dog constipation model; assay: Loperamide-induced dog constipation model (Example 1); type: in vivo; settings: for Dry fecal weight within 24 hours after the administration / Wet fecal weight within 24 hours after the administration / Frequency of bowel movement within 24 hours after the administration: mean of 10 dogs; for Dry fecal weight within 24 hours after the administration: Control group 1.0, Normal group 47.1; for Wet fecal weight within 24 hours after the administration: Control group 2.8, Normal group 136.2; for Frequency of bowel movement within 24 hours after the administration: observation at 17, 21, 24 hours, Control group 0.2, Normal group 2.1
Description: Lubiprostone (TLC Pharma Chem) was weighed and was suspended in 0.5% methylcellulose at preparation concentrations of 0.05 and 0.35 mg/mL to prepare control substances.
Loperamide hydrochloride (Wako pure chemical) was weighed at 0.3, 0.5, 1.0, 2.0, 4.0 or 8.0 mg/kg for each animal and was filled into a gelatin capsule.
Loperamide hydrochloride which was filled into a gelatin capsule was orally administered to dogs (beagle, male, 13-14 months old, 10 dogs, Kitayama-labesu). The dosage was increased from 0.3 mg/kg, and was set at 2.0, 4.0 or 8.0 mg/kg based on the bowel movement condition of each dog.
Tests were performed as a full cross-over trial. More than 5-day washout period was provided between each test, and a recovery of stool form was identified, and then the next test was performed.
A gelatin capsule which was filled with loperamide hydrochloride was administered orally at around 9 a.m. on the first and second days in each test.
The stool form of feces was scored in seven categories based on Bristol Stool Form Scale. The collected feces were dried fully, and then the feces were weighed, and it was set as the dry fecal weight.

[3] = system: patients with chronic constipation; assay: Clinical trial in patients with chronic constipation (Example 5); type: in vivo, human
Description: After observation for 2 weeks, Compound 2 or a placebo was administered orally after eating to 79 patients with chronic constipation for 4 weeks. Patients who had steady symptoms for long periods were selected as constipation patients using diagnostic criteria of functional constipation based on Rome III as a reference.
2 mg TID group: administration of 2 mg of Compound 2, 3 times daily • (after breakfast, after lunch, after dinner)
20 mg QD group: administration of 20 mg of Compound 2, 1 time daily • (after breakfast)
20 mg BID group: administration of 20 mg of Compound 2, 2 times daily • (after breakfast, after dinner)
20 mg TID group: administration of 20 mg of Compound 2, 3 times daily • (after breakfast, after lunch, after dinner)
For the administration of Compound 2, tablets containing 1 or 10 mg in free drug equivalent of Compound 2 were used.
If the subjects complained that further administration of 2 tablets each time was difficult due to the increase in the frequency of spontaneous bowel movements or softened stool form causing problems in daily life, the dose was switched to 1 tablet each time in the week 1 visit or week 2 visit by the doctor and the administration was continued.

Cc1cc(OCCCNCC(C)(C)C(N)=O)ccc1Cc1c(O[C@@H]2O[C@H](CO)[C@@H](O)[C@H](O)[C@H]2O)n[nH]c1C(C)C.Cc1cc(OCCCNCC(C)(C)C(N)=O)ccc1Cc1c(O[C@@H]2O[C@H](CO)[C@@H](O)[C@H](O)[C@H]2O)n[nH]c1C(C)C.O=C(O)CCCCCCCCC(=O)O [Compound 2, bis[3-(3-{4-[3-(β-D-glucopyranosyloxy)-5-isopropyl-1H-pyrazol-4-ylmethyl]-3-methylphenoxy}propylamino)-2,2-dimethylpropionamide]monosebacate]
Fecal weight within 24 hours after the administration ([1]; 3 mg/kg as free drug oral): 1.20 g | Fecal weight within 24 hours after the administration ([1]; 10 mg/kg as free drug oral): 4.20 g | Fecal weight during 24 hours versus Control group ([1]; 10 mg/kg or more, versus Control group 1, significance level <5%): significantly higher than in each Control group | Fecal weight within 24 hours after the administration ([1]; 30 mg/kg as free drug oral): 4.93 g | Dose dependence of fecal weight during 24 hours after the administration ([1]; oral): dose-dependently increased | Dry fecal weight within 24 hours after the administration ([2]; 1 mg/kg oral): 10.4 g | Wet fecal weight within 24 hours after the administration ([2]; 1 mg/kg oral): 29.5 g | Frequency of bowel movement within 24 hours after the administration ([2]; 1 mg/kg oral): 0.5 time | Wet fecal weight, dry weight and frequency of bowel movements versus Control group ([2]; 3 mg/kg or more, significance level <5%): significantly higher than in Control group | Dry fecal weight within 24 hours after the administration ([2]; 3 mg/kg oral): 21.6 g | Wet fecal weight within 24 hours after the administration ([2]; 3 mg/kg oral): 60.9 g | Frequency of bowel movement within 24 hours after the administration ([2]; 3 mg/kg oral): 1.2 time | Dry fecal weight within 24 hours after the administration ([2]; 10 mg/kg oral): 27.3 g | Wet fecal weight within 24 hours after the administration ([2]; 10 mg/kg oral): 77.2 g | Frequency of bowel movement within 24 hours after the administration ([2]; 10 mg/kg oral): 1.5 time | Increases of loose stool and diarrhea ([2]; all doses of this test): not observed | Dose dependence of wet fecal weight, dry weight and frequency of bowel movements ([2]; within 24 hours after oral administration): dose-dependently increased | Subjects with hypoglycemia ([3]; all groups administered, 4 weeks): no subjects with hypoglycemia were reported | Frequency of spontaneous bowel movements per week ([3]; subject 1, 2 mg TID, administration week 1, observation period 1.1): 7.0 time/week | Bristol Stool Form Scale ([3]; subject 1, 2 mg TID, administration week 1, observation period 1.5): 3.7 mean/week | Frequency of spontaneous bowel movements per week ([3]; subject 1, 2 mg TID, administration week 2, observation period 1.1): 7.0 time/week | Bristol Stool Form Scale ([3]; subject 1, 2 mg TID, administration week 2, observation period 1.5): 3.7 mean/week | Frequency of spontaneous bowel movements per week ([3]; subject 1, 2 mg TID, administration week 3, observation period 1.1): 11.0 time/week | Bristol Stool Form Scale ([3]; subject 1, 2 mg TID, administration week 3, observation period 1.5): 4.1 mean/week | Frequency of spontaneous bowel movements per week ([3]; subject 1, 2 mg TID, administration week 4, observation period 1.1): 10.5 time/week | Bristol Stool Form Scale ([3]; subject 1, 2 mg TID, administration week 4, observation period 1.5): 3.8 mean/week | Frequency of spontaneous bowel movements per week ([3]; subject 2, 20 mg QD, administration week 1, observation period 1.8): 12.0 time/week | Bristol Stool Form Scale ([3]; subject 2, 20 mg QD, administration week 1, observation period 3.0): 4.6 mean/week | Frequency of spontaneous bowel movements per week ([3]; subject 2, 20 mg QD, administration week 2, observation period 1.8): 13.0 time/week | Bristol Stool Form Scale ([3]; subject 2, 20 mg QD, administration week 2, observation period 3.0): 4.0 mean/week | Frequency of spontaneous bowel movements per week ([3]; subject 2, 20 mg QD, administration week 3, observation period 1.8): 8.0 time/week | Bristol Stool Form Scale ([3]; subject 2, 20 mg QD, administration week 3, observation period 3.0): 3.4 mean/week | Bristol Stool Form Scale ([3]; subject 3, 20 mg BID switched to 10 mg 2 times daily after 1 week, administration week 2, observation period 2.0): 4.0 mean/week | Frequency of spontaneous bowel movements per week ([3]; subject 3, 20 mg BID switched to 10 mg 2 times daily after 1 week, administration week 2, observation period 2.2): 6.0 time/week | Bristol Stool Form Scale ([3]; subject 3, 20 mg BID switched to 10 mg 2 times daily after 1 week, administration week 3, observation period 2.0): 4.3 mean/week | Frequency of spontaneous bowel movements per week ([3]; subject 3, 20 mg BID switched to 10 mg 2 times daily after 1 week, administration week 3, observation period 2.2): 6.0 time/week | Bristol Stool Form Scale ([3]; subject 3, 20 mg BID switched to 10 mg 2 times daily after 1 week, administration week 4, observation period 2.0): 4.2 mean/week | Frequency of spontaneous bowel movements per week ([3]; subject 3, 20 mg BID switched to 10 mg 2 times daily after 1 week, administration week 4, observation period 2.2): 5.0 time/week | Bristol Stool Form Scale ([3]; subject 3, 20 mg BID, administration week 1, observation period 2.0): 5.9 mean/week | Frequency of spontaneous bowel movements per week ([3]; subject 3, 20 mg BID, administration week 1, observation period 2.2): 21.0 time/week
